pIC50: −log10 of the molar value. Several values for one entry are separate records, joined by “and”; a condition that tells them apart may be missing. Equal values may be shown once.
Target: SARS-CoV-2 3CLpro (Severe acute respiratory syndrome coronavirus 2, UniProt P0DTD1)
Assay: ED-FRET protease assay with SARS-CoV-2 3CLpro (DABCYL-[…]-EDANS IQF peptide substrate)
Assay type: biochemical
Conditions: for inhibitory effect on peptide-cleaving activity of SARS-CoV-2 3CLpro (in words): compound 20 μM, FIG. 1; for pIC50: IC50, relative 3CLpro activity
[1] = 0.125 μM SARS-CoV-2 3CLpro and 1.25 μM IQF peptide substrate (0.125p/1.25FP)

Structure (SMILES)	inhibitory effect on peptide-cleaving activity of SARS-CoV-2 3CLpro (in words)	pIC50 [1]	pIC50 (0.25 μM SARS-CoV-2 3CLpro and 2.5 μM IQF peptide substrate)	pIC50 (0.5 μM SARS-CoV-2 3CLpro and 5 μM IQF peptide substrate (0.5p/5FP))	inhibition at 20 µM (read-out: SARS-CoV-2 3CLpro inhibition) [%]
C=C(CC[C@@H](C(=O)O)[C@H]1CC[C@@]2(C)C3=CC[C@H]4C(C)(C)[C@@H](O)CC[C@]4(C)C3=CC[C@]12C)C(C)C [AR101 DS4]	inhibitory effect	–	–	–	–
C=C1C(=O)O[C@H]2/C=C(\C)CC3C=C(CC/C=C(\C)CC[C@H]12)C(=O)O3 (stereo partly drawn) [AR100 DS1]	inhibitory effect	4.67	–	–	–
C=C(CC[C@@H](C(=O)O)[C@H]1C[C@H](OC(C)=O)[C@@]2(C)C3=C(CC[C@]12C)[C@@]1(C)CC[C@H](O)C(C)(C)[C@@H]1CC3)C(C)C [AR101 DS3]	utmost inhibitory effect	4.93	4.96	4.84 and 4.96	~50
C=C(CC[C@@H](C)[C@H]1CC[C@H]2C3=C(C(=O)C[C@]12C)[C@@]1(C)CC[C@@H](O)[C@](C)(O)[C@@H]1C[C@@H]3O)[C@@H](C)C(=O)O (stereo in doubt) [AR101 DS1]	inhibitory effect	–	–	–	–

— patent US12433901B2, “Compounds and methods for prevention and treatment of coronavirus infections” (ARJIL BIOTECH HOLDING COMPANY LIMITED, priority 2020, dated 2025)
